How the values were obtained:
[1] = system: Spodoptera littoralis larvae; experiment: Larval mortality of S. littoralis fed on treated castor bean leaves (tank mix novaluron + methoxyfenozide), Colby synergy; assay type: in vivo; details: Table 1, 0.01 mg a.i./L of each active
Method: (§1) Colby's method is used to determine if synergy exists for a combination of active ingredients. According to Colby, the expected action (E) of active ingredients A+B is:
(§2) [formula] • where E=expected efficacy, A and B=the efficacy of two active ingredients A and B at a given dose.
(§3) When the percentage of control observed (O) for the combination is greater than the expected (E) percentage, there is a synergistic effect. The synergism ratio (R) is calculated as the ratio between the […].
A representative experiment was conducted to evaluate the insecticidal control of novaluron, a compound II, namely methoxyfenozide as well as a mixture of novaluron and methoxyfenozide against Spodoptera littoralis larvae.
(§4) The experiments were conducted by applying commercially available compositions of Novaluron (Rimon®) and methoxyfenozide (Runner®) alone or together. The compositions were diluted with water to the stated concentration of the active compound.
(§5) The following active ingredients and their mixtures were evaluated: • Novaluron: 0.01 mg a.i./liter • Methoxyfenozide: 0.01 mg a.i./liter • Novaluron+Methoxyfenozide 0.01 mg a.i./liter+0.01 mg a.i./liter
(§6) To evaluate the insecticidal control of novaluron and methoxyfenozide alone and in a binary mixture, castor bean leaves were treated with the above listed treatments. The treated leaves were exposed for 4-day feeding to 3rd-instar Spodoptera littoralis and the larvae were exposed for additional 4 days on untreated leaves. Larval mortality was determined at day 4 and 8. The treatments were composed of 3-5 replicates of 10 larvae each.

[2] = system: Spodoptera littoralis larvae; experiment: Larval weight gain (LWG) of S. littoralis on treated castor bean leaves; assay type: in vivo; details: Table 3
Method: as §4, §5, §6
Larval weight gain (LWG) was also measured in order to determine the effectiveness of the mixture of novaluron and methoxyfenozide when compared to the solo application of novaluron and methoxyfenozide.
Table 3 below summarizes the larval weight gain (LWG) (compared to the control), that was determined 4 days after treatment for the mixture of novaluron and methoxyfenozide.

T. absoluta = experiment: Insecticidal % control against T. absoluta, Colby synergy; assay type: in vivo, Tuta absoluta; details: 72 hours after treatment
Method: as §1, §2, §3
(§7) The insecticidal compounds A (Novaluron) and B (mix partner) are formulated as equivalent suspension concentrates to eliminate the effects of differing formulation inerts on biological activity. Efficacy of the insecticidal compositions is evaluated with reference to a scale of 0% to 100% in comparison with untreated control plots. 0 means no damage and 100 means complete destruction of the harmful pests.
(§8) Likewise following experimentations were done on other mixtures of novaluron on various pests, the result of which are summarized in the below tables: […]

F. occidentalis = experiment: Insecticidal % control against F. occidentalis, Colby synergy; assay type: in vivo, Frankliniella occidentalis
Method: as §1, §2, §3, §7, §8

S. frugiperda = experiment: Insecticidal % control against S. frugiperda, Colby synergy; assay type: in vivo, Spodoptera frugiperda; details: 120 hours after treatment
Method: as §1, §2, §3, §7, §8

[3] = system: Cotton Leafworm, S. littoralis; experiment: Insecticidal % control against Cotton Leafworm, S. littoralis, Colby synergy; assay type: in vivo, Spodoptera littoralis; details: 72 hours after treatment
Method: as §1, §2, §3, §7, §8

M. persicae = experiment: Insecticidal % control against M. persicae, Colby synergy; assay type: in vivo, Myzus persicae
Method: as §1, §2, §3, §7, §8

T. urticae = experiment: Insecticidal % control against T. urticae, Colby synergy; assay type: in vivo, Tetranychus urticae
Method: as §1, §2, §3, §7, §8

B. tabaci = experiment: Insecticidal % control against B. tabaci, Colby synergy; assay type: in vivo, Bemisia tabaci; details: Table 7, 72 hours after treatment
Method: as §1, §2, §3, §7, §8

A. gossypii = experiment: Insecticidal % control against A. gossypii, Colby synergy; assay type: in vivo, Aphis gossypii; details: 96 hours after treatment
Method: as §1, §2, §3, §7, §8

H. halys = experiment: Insecticidal % control against H. halys, Colby synergy; assay type: in vivo, Halyomorpha halys; details: Table 20 B; 144 hours after treatment; 50 ppm
Method: as §1, §2, §3, §7, §8

SMILES: O=C(NC(=O)c1c(F)cccc1F)Nc1ccc(OC(F)(F)C(F)OC(F)(F)F)c(Cl)c1 (single isomer, unassigned; (+)) [Novaluron, (+)-I-[3-chloro-4-(1,1,2-trifluoro-2-trifluoromethoxyethoxy)phenyl]-3-(2,6-difluorobenzoyl) urea]
- Larval mortality, % (observed) 4 d ([1]; 3rd-instar larvae, 4-day feeding on treated leaves, day 4): 3.5%
- Larval mortality, % (observed) 8 d ([1]; 4 days on treated then 4 days on untreated leaves, day 8): 20%
- LWG % rel. Control ([2]; 4 days after treatment, 0.01 mg a.i./L of each active): 108 % rel. Control
- effect on the weight gain of the Spodoptera littoralis larvae ([2]; applied alone): neither novaluron nor methoxyfenozide alone have any effect on the weight gain
- Observed % control (O) (T. absoluta; Table 2, 300 ppm): 0%
- Observed % control (O) (T. absoluta; Table 5 C, 0.1 ppm): 16.7%
- Observed % control (O) (T. absoluta; Table 5 C, 1 ppm): 16.7%
- Observed % control (O) (T. absoluta; Table 5 C, 300 ppm): 16.7%
- Observed % control (O) (F. occidentalis; Table 4 A, 48 hours after treatment, 5.3 ppm): 14.0%
- Observed % control (O) (F. occidentalis; Table 4 B, 72 hours after treatment, 5.3 ppm): 20.0%
- Observed % control (O) (F. occidentalis; Table 4 C, 7 days after treatment, 5.3 ppm): 40.0%
- Observed % control (O) (F. occidentalis; Table 5 D, 48 hours after treatment, 3.5 ppm): 4.0%
- Observed % control (O) (F. occidentalis; Table 5 E, 72 hours after treatment, 3.5 ppm): 4.0%
- Observed % control (O) (F. occidentalis; Table 5 F, 7 days after treatment, 3.5 ppm): 8.0%
- Observed % control (O) (F. occidentalis; Table 18 B, 72 hours after treatment, 5 ppm): 10.0%
- Observed % control (O) (F. occidentalis; Table 18 B, 72 hours after treatment, 500 ppm): 10.0%
- Observed % control (O) (F. occidentalis; Table 20 C, 48 hours after treatment, 1 ppm): 16.0%
- Observed % control (O) (F. occidentalis; Table 20 D, 72 hours after treatment, 1 ppm): 50.0%
- Observed % control (O) (F. occidentalis; Table 20 D, 72 hours after treatment, 100 ppm): 50.0%
- Observed % control (O) (F. occidentalis; Table 20 E, 7 days after treatment, 1 ppm): 74.0%
- Observed % control (O) (F. occidentalis; Table 20 E, 7 days after treatment, 100 ppm): 84.0%
- Observed % control (O) (S. frugiperda; Table 5 A, 0.01 ppm): 27%
- Observed % control (O) (S. frugiperda; Table 5 A, 0.05 ppm): 40%
- Observed % control (O) (S. frugiperda; Table 9, 0.01 ppm): 27%
- Observed % control (O) (S. frugiperda; Table 9, 0.025 ppm): 30%
- Observed % control (O) (S. frugiperda; Table 10 A, 0.025 ppm): 30%
- Observed % control (O) ([3]; Table 5 B, 0.02 ppm): 0%
- Observed % control (O) ([3]; Table 8, 12 ppm): 75%
- Observed % control (O) ([3]; Table 10 B, 0.02 ppm): 30%
- Observed % control (O) ([3]; Table 11, 12 ppm): 25%
- Observed % control (O) ([3]; Table 12, 12 ppm): 75%
- Observed % control (O) ([3]; Table 13, 12 ppm): 75%
- Observed % control (O) ([3]; Table 16, 0.04 ppm): 73%
- Observed % control (O) ([3]; Table 20 A, 0.02 ppm): 0%
- Observed % control (O) ([3]; Table 20 A, 0.2 ppm): 5%
- Observed % control (O) ([3]; Table 21, 12 ppm): 12.5%
- Observed % control (O) (M. persicae; Table 6 A, 72 hours after treatment, 1 ppm): 34%
- Observed % control (O) (M. persicae; Table 6 B, 7 days after treatment, 1 ppm): 38.8%
- Observed % control (O) (M. persicae; Table 15 A, 48 hours after treatment, 50 ppm): 14%
- Observed % control (O) (M. persicae; Table 15 B, 72 hours after treatment, 0.5 ppm): 30%
- Observed % control (O) (M. persicae; Table 15 B, 72 hours after treatment, 50 ppm): 44%
- Observed % control (O) (M. persicae; Table 17 A, 72 hours after treatment, 0.2 ppm): 56%
- Observed % control (O) (M. persicae; Table 17 B, 7 days after treatment, 0.2 ppm): 62.5%
- Observed % control (O) (M. persicae; Table 19 B, 7 days after treatment, 500 ppm): 72.9%
- Observed % control (O) (T. urticae; Table 6 C, 48 hours after treatment, 6 ppm): 0%
- Observed % control (O) (T. urticae; Table 6 D, 72 hours after treatment, 6 ppm): 0%
- Observed % control (O) (T. urticae; Table 6 E, 7 days after treatment, 6 ppm): 6.1%
- Observed % control (O) (T. urticae; Table 14 A, 48 hours after treatment, 2.4 ppm): 12%
- Observed % control (O) (T. urticae; Table 14 A, 48 hours after treatment, 120 ppm): 8%
- Observed % control (O) (T. urticae; Table 14 B, 72 hours after treatment, 2.4 ppm): 13%
- Observed % control (O) (T. urticae; Table 14 B, 72 hours after treatment, 120 ppm): 10%
- Observed % control (O) (T. urticae; Table 14 C, 7 days after treatment, 2.4 ppm): 15%
- Observed % control (O) (T. urticae; Table 14 C, 7 days after treatment, 120 ppm): 17%
- Observed % control (O) (B. tabaci; 7 ppm): 23.1%
- Observed % control (O) (B. tabaci; 35 ppm): 25.2%
- Observed % control (O) (A. gossypii; Table 18 A, 10 ppm): 16.2%
- Observed % control (O) (A. gossypii; Table 19 A, 100 ppm): 16.5%
- Observed % control (O) (H. halys): 12.5%

Reference: patent US20240196899A1, “PESTICIDAL MIXTURES” (priority 2021, published 2024)
